Results as given in patent US12655106B2 (Eikonizo Therapeutics, Inc., priority 2021, dated 2026).

Assays:
Full length Human HDAC8 = biological target: T1, Full length Human HDAC8 (Homo sapiens, UniProt Q9BY41); experiment: Caliper endpoint assay for HDAC enzymatic activity (HDAC8); type: biochemical; conditions: in vitro enzymatic, 30 min pre-incubation, 1 μM substrate peptide
T1 construct: Full length Human HDAC8; HIS (N); host or cells: baculovirus expression system
T1 sequence (Q9BY41 1-377): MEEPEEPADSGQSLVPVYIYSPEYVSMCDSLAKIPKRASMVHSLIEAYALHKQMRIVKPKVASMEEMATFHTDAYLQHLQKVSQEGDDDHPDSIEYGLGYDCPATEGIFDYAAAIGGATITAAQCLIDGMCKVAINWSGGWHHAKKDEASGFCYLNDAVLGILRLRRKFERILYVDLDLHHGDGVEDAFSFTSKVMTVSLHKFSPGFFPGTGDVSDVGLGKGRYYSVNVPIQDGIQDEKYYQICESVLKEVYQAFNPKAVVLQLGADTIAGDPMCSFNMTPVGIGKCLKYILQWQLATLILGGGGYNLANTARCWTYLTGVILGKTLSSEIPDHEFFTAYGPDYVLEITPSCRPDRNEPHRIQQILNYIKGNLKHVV

Full length Human HDAC6 = biological target: T2, Full length Human HDAC6 (Homo sapiens, UniProt Q9UBN7); experiment: Caliper endpoint assay for HDAC enzymatic activity (HDAC6); type: biochemical; conditions: for IC50: in vitro enzymatic, Caliper endpoint assay, 30 min pre-incubation, 1 μM substrate peptide; for Selectivity (6 v 8): ratio of HDAC8 IC50/HDAC6 IC50
T2 construct: Full length Human HDAC6; FLAG (C); host or cells: baculovirus expression system
T2 sequence (Q9UBN7 1-1215): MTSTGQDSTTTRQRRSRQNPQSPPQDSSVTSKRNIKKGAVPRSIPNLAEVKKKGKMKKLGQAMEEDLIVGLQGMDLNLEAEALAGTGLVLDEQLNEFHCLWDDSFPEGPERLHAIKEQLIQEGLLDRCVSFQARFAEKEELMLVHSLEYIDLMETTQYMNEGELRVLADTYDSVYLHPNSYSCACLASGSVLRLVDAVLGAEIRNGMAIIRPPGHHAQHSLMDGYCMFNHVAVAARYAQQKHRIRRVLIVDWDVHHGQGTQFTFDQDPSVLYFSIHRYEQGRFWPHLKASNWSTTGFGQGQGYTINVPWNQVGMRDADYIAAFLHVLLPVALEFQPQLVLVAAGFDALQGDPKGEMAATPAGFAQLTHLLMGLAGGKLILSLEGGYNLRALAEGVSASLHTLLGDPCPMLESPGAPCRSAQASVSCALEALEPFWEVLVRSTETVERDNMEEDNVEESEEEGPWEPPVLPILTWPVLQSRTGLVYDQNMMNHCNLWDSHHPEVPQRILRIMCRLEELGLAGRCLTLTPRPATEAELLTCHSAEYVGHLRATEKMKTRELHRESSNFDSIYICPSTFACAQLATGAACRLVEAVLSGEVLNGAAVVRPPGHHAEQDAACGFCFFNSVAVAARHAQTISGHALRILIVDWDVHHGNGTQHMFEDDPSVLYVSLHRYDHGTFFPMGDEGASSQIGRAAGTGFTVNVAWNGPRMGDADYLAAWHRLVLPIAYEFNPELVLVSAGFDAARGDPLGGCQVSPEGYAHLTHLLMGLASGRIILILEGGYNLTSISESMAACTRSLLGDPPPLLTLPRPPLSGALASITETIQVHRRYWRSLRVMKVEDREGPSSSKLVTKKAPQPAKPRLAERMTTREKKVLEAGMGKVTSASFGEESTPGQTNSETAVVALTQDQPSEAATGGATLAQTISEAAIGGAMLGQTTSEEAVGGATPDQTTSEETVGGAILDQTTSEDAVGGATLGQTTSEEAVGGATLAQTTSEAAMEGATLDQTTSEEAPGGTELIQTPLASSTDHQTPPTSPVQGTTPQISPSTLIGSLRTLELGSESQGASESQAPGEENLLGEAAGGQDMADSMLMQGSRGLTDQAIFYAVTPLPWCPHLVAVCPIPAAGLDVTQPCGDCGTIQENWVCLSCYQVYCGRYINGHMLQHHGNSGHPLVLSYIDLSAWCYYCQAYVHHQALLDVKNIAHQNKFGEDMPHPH

Compound | IC50 (Full length Human HDAC8) | IC50 (Full length Human HDAC6) | Selectivity (6 v 8) (Full length Human HDAC6)
CN1CC2(CN3CCc4cc(C(=O)NO)cc(F)c4C3)CC1C2 [Compound 490, 8-fluoro-2-[(2-methyl-2-azabicyclo[2.1.1]hexan-4-yl)methyl]-3,4-dihydro-1H-isoquinoline-6-carbohydroxamic acid] | 1000 to 10000 nM | 1 to 100 nM | IV (IV: >100-1000)
CC[C@H]1Cc2c(F)cc(C(=O)NO)cc2CN1C1CC2(CCN(C(C)=O)CC2)C1 (single isomer, unassigned) [Compound 603] | 10000 to 100000 nM | 100 to 1000 nM | IV (IV: >100-1000)
CC[C@@H]1Cc2c(F)cc(C(=O)NO)cc2CN1CC1CC2(CCCCC2)C1 (single isomer, unassigned) [Compound 521] | 100 to 1000 nM | 1 to 100 nM | III (III: >10-100)
O=C(NO)c1cc(F)c2c(c1)CCN(C1CC[C@]13CCCO3)C2 (single isomer, unassigned) [Compound 320] | 10000 to 100000 nM | 1 to 100 nM | IV (IV: >100-1000)
CC[C@H]1Cc2c(F)cc(C(=O)NO)cc2CN1C[C@]12C[C@H](CO1)N(C)C2 (single isomer, unassigned) [Compound 552] | 10000 to 100000 nM | 1 to 100 nM | IV (IV: >100-1000)
CC[C@H]1Cc2c(F)cc(C(=O)NO)cc2CN1C[C@@H]1C[C@H]2CC[C@@H](C1)N2C (single isomer, unassigned) [Compound 573] | 1000 to 10000 nM | 1 to 100 nM | IV (IV: >100-1000)
CC(=O)N1CC[C@H](N2CCc3cc(C(=O)NO)cc(F)c3C2)CC12CCC2 (single isomer, unassigned) [Compound 441] | 1000 to 10000 nM | 1 to 100 nM | IV (IV: >100-1000)
O=C(NO)c1ccc2c(c1)C[C@H]1COCC(=O)N1C2 (single isomer, unassigned) [Compound 134] | 1000 to 10000 nM | 1 to 100 nM | –
CC[C@@H]1N(Cc2ccc(C(=O)NO)cc2F)CC12CCCC2 (single isomer, unassigned) [Compound 168] | 1000 to 10000 nM | 100 to 1000 nM | –
CC[C@@H]1Cc2c(F)cc(C(=O)NO)cc2CN1C1COC1 (single isomer, unassigned) [Compound 600] | 1000 to 10000 nM | 1 to 100 nM | IV (IV: >100-1000)
O=C(NO)c1cc(F)c2c(c1)CCN(C1CCC13CNC3)C2 (stereo not shown) [Compound 301, 2-(2-azaspiro[3.3]heptan-7-yl)-8-fluoro-3,4-dihydro-1H-isoquinoline-6-carbohydroxamic acid] | 1000 to 10000 nM | 1 to 100 nM | IV (IV: >100-1000)
CN1CC[C@]2(CC[C@H]2N2CCc3cc(C(=O)NO)cc(F)c3C2)C1 (single isomer, unassigned) [Compound 332] | 1000 to 10000 nM | 100 to 1000 nM | III (III: >10-100)
O=C(NO)c1cc(F)c2c(c1)CCN(C1CC3(CCCO3)C1)C2 (single isomer, unassigned) [Compound 191, 8-fluoro-N-hydroxy-2-(5-oxaspiro[3.4]octan-2-yl)-1,2,3,4-tetrahydroisoquinoline-6-carboxamide] | 10000 to 100000 nM | 1 to 100 nM | IV (IV: >100-1000)
O=C(NO)c1cc(F)c2c(c1)CCN(C1CCOC3(CCC3)C1)C2 (single isomer, unassigned) [Compound 446] | 10000 to 100000 nM | 1 to 100 nM | V (V: >1000)
O=C(NO)c1cc(F)c2c(c1)CCN(C1CCC13CN(C1CC1)C3)C2 (stereo not shown) [Compound 303, 2-(2-cyclopropyl-2-azaspiro[3.3]heptan-7-yl)-8-fluoro-3,4-dihydro-1H-isoquinoline-6-carbohydroxamic acid] | 1000 to 10000 nM | 1 to 100 nM | III (III: >10-100)
CN1CCC2(CC1)CC(N1CCc3cc(C(=O)NO)cc(F)c3C1)C2 [Compound 198, 8-fluoro-N-hydroxy-2-(7-methyl-7-azaspiro[3.5]nonan-2-yl)-1,2,3,4-tetrahydroisoquinoline-6-carboxamide] | 10000 to 100000 nM | 1 to 100 nM | IV (IV: >100-1000)
O=C(NO)c1cc(F)c2c(c1)C[C@@H]1CCCCN1C2 [Compound 93] | 1000 to 10000 nM | 1 to 100 nM | IV (IV: >100-1000)
O=C(NO)c1cc(F)c2c(c1)CCN([C@H]1C[C@]3(CCCN(C4CC4)C3)C1)C2 (single isomer, unassigned) [Compound 345, 2-((2r,4s)-6-cyclopropyl-6-azaspiro[3.5]nonan-2-yl)-8-fluoro-N-hydroxy-1,2,3,4-tetrahydroisoquinoline-6-carboxamide] | 1000 to 10000 nM | 1 to 100 nM | IV (IV: >100-1000)
CC(=O)N1CC2(CCC2N2CCc3cc(C(=O)NO)cc(F)c3C2)C1 (stereo not shown) [Compound 304, 2-(2-acetyl-2-azaspiro[3.3]heptan-7-yl)-8-fluoro-3,4-dihydro-1H-isoquinoline-6-carbohydroxamic acid] | 1000 to 10000 nM | 1 to 100 nM | IV (IV: >100-1000)
CC(=O)N1CCC2(CCC(N3CCc4cc(C(=O)NO)cc(F)c4C3)C2)CC1 (stereo not shown) [Compound 419, 2-(8-acetyl-8-azaspiro[4.5]decan-3-yl)-8-fluoro-3,4-dihydro-1H-isoquinoline-6-carbohydroxamic acid] | 10000 to 100000 nM | 1 to 100 nM | IV (IV: >100-1000)
O=C(NO)c1cc(F)c2c(c1)CCN(C1CCC3(CC1)CN(Cc1ccccc1)C3)C2 [Compound 430, 2-(2-benzyl-2-azaspiro[3.5]nonan-7-yl)-8-fluoro-3,4-dihydro-1H-isoquinoline-6-carbohydroxamic acid] | 1000 to 10000 nM | 1 to 100 nM | IV (IV: >100-1000)
CC(=O)N1CC2(CCC(CN3CCc4cc(C(=O)NO)cc(F)c4C3)CC2)C1 [Compound 467, 2-[(2-acetyl-2-azaspiro[3.5]nonan-7-yl)methyl]-8-fluoro-3,4-dihydro-1H-isoquinoline-6-carbohydroxamic acid] | 10000 to 100000 nM | 1 to 100 nM | IV (IV: >100-1000)
O=C(NO)c1cc(F)c2c(c1)CN1CCC[C@H]1C2 [Compound 123] | 1000 to 10000 nM | 100 to 1000 nM | III (III: >10-100)
CN1Cc2cc(C(=O)NO)cc(F)c2CN1Cc1ccccc1 [Compound 118] | 1000 to 10000 nM | 1 to 100 nM | IV (IV: >100-1000)
